One compound from paper PMC6107105, “Update on drug development targeting parasite cysteine proteases” (PLoS Neglected Tropical Diseases, 2018) can be followed below.

Series [1] deals with Sprague-Dawley rats. Description: Acute intravenous non-GLP toxicity study in rats (SRI study M001-98). Type of series: in vivo. The settings on record: male and female Sprague-Dawley rats.
In another series the test system is rats. In words: 7-Day non-GLP Toxicity Study in Rats (SRI study M587-08). Type of series: in vivo. The settings on record: 50 or 150 mg/Kg/day for 7 days.
A further series deals with dogs. Description: 7-day non-GLP toxicity study in dogs (SRI study M138-00). Type of series: in vivo. To be noted: orally as solid in gelatin capsules, 100 mg/kg daily for 7 days, 2 dogs.
On the set-up of series [2]: species or system NHPs. To be noted: in vivo, 200 mg/kg.
Series [3] relates to Sprague-Dawley rats. In words: 14-day GLP toxicity study in Sprague-Dawley rats (SRI study M602-08). Type of series: in vivo.
The test system of a further series is cynomolgus monkeys. In words: Pilot multiple dose safety/pharmacokinetic 7-day non-GLP study in cynomolgus monkeys (SRI study M158-01). Type of series: in vivo. The settings on record: 200 mg/Kg once daily for 7 days.

As usually defined, the AUC is the area under the concentration-time curve, a measure of exposure. A higher AUC goes with more exposure. Broadly, the Cmax is the peak of the concentration-time curve. A word on the Tmax: it is the time at which the peak concentration occurs. Broadly, the half-life is how long it takes for the measured level to halve. Low values mean rapid decline, high ones slow decline. Turning to `CN1CCN(C(=O)N[C@@H](Cc2ccccc2)C(=O)N[C@H](/C=C/S(=O)(=O)c2ccccc2)CCc2ccccc2)CC1.Cl` [K777 HCl], the “dose producing mortality and adverse clinical signs” value in the series on Sprague-Dawley rats [1] is “K777 HCl administered IV to male and female Sprague-Dawley rats produced mortality and adverse clinical signs at 150 mg/Kg and higher”. Further, the tolerability entry with rats (male and female rats, SRI study M587-08) is “well tolerated”. Further, in the series on rats (rats), the “liver effects at the doses employed” value was “mild and transient”; the “target organ of toxicity” value was “liver”. Moreover, in the series with dogs, the mortality or morbidity entry was “K777 HCl was administered orally as a solid in gelatin capsules to 2 dogs (1 male and 1 female) at 100 mg/kg daily for 7 days. No mortality or morbidity was observed in this study”. In series [2], the AUC was found to be 32500 ng·h/mL, the Cmax came out at 4500 ng/mL, the Tmax was 4 h and the half-life was about 4 h. For the same compound, the “mortality or treatment-related adverse clinical signs” value with Sprague-Dawley rats [3] (14-day, any dose level, SRI study M602-08) was “No mortality or treatment-related adverse clinical signs were observed following the administration of K777 HCl at any dose level”. Also, in the series on Sprague-Dawley rats [3] (rat, in vivo), the “changes in clinical chemistry parameters (total protein, potassium, phosphorus, creatinine increases; blood urea nitrogen decrease)” value is “not considered biologically significant”; the “effects on hematology, urinalysis, or ophthalmology parameters” value is “no treatment-related adverse effects”; the histopathology result is “No treatment-related histopathological abnormalities”. For the same compound, in the series on cynomolgus monkeys, the mortality or morbidity result is recorded as “No mortality or morbidity was observed following the administration of K777 HCl at 200 mg/Kg once daily for 7 days”.
